Data as given in the supplement of paper PMC10307832.

Tests used:
Assay in all cases: relative viability (nuclei count vs DMSO), 5 days (fraction); higher = more cells survive
[1] = compound: CCn1c(-c2nonc2N)nc2cnc(Oc3cccc(NC(=O)c4ccc(OCCN5CCOCC5)cc4)c3)cc21 + COc1cccc2cc(-c3nc([C@H]4CC[C@H](C(=O)O)CC4)n4ncnc(N)c34)[nH]c12 [OSI-027] (partner 0.5 µM)
In short: (§1)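 After 5 days of treatment, lung cancer cells in 1536-well plates were fixed and stained in a single step (final 0.05% Triton X-100, 1% formaldehyde, 1 ug/ml Hoechst) and their nuclei counted on 4× images. Treatment had been applied by pin tool the day after seeding as one drug alone or as a fixed anchor-drug dose with five library-drug doses (not always all listed) in √10 steps. Relative viability is the nuclei count of treated wells divided by that of vehicle wells, and values are medians of duplicate plates.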

[2] = compound: CCC1=CN=CN=C1N2CCN(CC2)CC3=NC4=C(N3)C=C(C=C4)C(F)(F)F + CCNC(=O)c1noc(-c2cc(C(C)C)c(O)cc2O)c1-c1ccc(CN2CCOCC2)cc1 [Luminespib] (partner 0.01 µM)
In short: as §1

[3] = compound: CCC1=CN=CN=C1N2CCN(CC2)CC3=NC4=C(N3)C=C(C=C4)C(F)(F)F + Cc1nc(Nc2ncc(C(=O)Nc3c(C)cccc3Cl)s2)cc(N2CCN(CCO)CC2)n1 [Dasatinib] (partner 0.075 µM)
In short: as §1

[4] = compound: N=C1NC(=O)/C(=C/c2ccc(O)cc2)S1 [Mirin] + O=C(CCCCCCC(=O)Nc1ccccc1)NO [Vorinostat] (partner 1 µM)
In short: as §1

## NCI-H522
[1]; first compound 0.04 µM
  relative viability: 0.742
[1]; first compound 0.1265 µM
  relative viability: 0.818
[1]; first compound 0.4 µM
  relative viability: 0.642
[1]; first compound 1.265 µM
  relative viability: 0.55
[1]; first compound 4 µM
  relative viability: 0.587
[2]; first compound 0.04 µM
  relative viability: 1.16
[2]; first compound 0.1265 µM
  relative viability: 1.24
[2]; first compound 0.4 µM
  relative viability: 1.15
[2]; first compound 1.265 µM
  relative viability: 0.867
[2]; first compound 4 µM
  relative viability: 0.987
[3]; first compound 0.04 µM
  relative viability: 0.849
[3]; first compound 0.1265 µM
  relative viability: 0.819
[3]; first compound 0.4 µM
  relative viability: 0.88
[3]; first compound 1.265 µM
  relative viability: 0.866
[3]; first compound 4 µM
  relative viability: 0.923
[4]; first compound 0.25 µM
  relative viability: 1.04
[4]; first compound 0.7906 µM
  relative viability: 1.1
[4]; first compound 2.5 µM
  relative viability: 0.89
[4]; first compound 7.906 µM
  relative viability: 0.692
[4]; first compound 25 µM
  relative viability: 0.695

## NCI-H596
[1]; first compound 0.04 µM
  relative viability: 0.755
[1]; first compound 0.1265 µM
  relative viability: 0.715
[1]; first compound 0.4 µM
  relative viability: 0.591
[1]; first compound 1.265 µM
  relative viability: 0.528
[1]; first compound 4 µM
  relative viability: 0.615
[2]; first compound 0.04 µM
  relative viability: 1.25
[2]; first compound 0.1265 µM
  relative viability: 1.02
[2]; first compound 0.4 µM
  relative viability: 0.814
[2]; first compound 4 µM
  relative viability: 1.03
[3]; first compound 0.04 µM
  relative viability: 0.679
[3]; first compound 0.1265 µM
  relative viability: 0.608
[3]; first compound 0.4 µM
  relative viability: 0.555
[3]; first compound 4 µM
  relative viability: 0.668
[4]; first compound 0.25 µM
  relative viability: 0.727
[4]; first compound 0.7906 µM
  relative viability: 0.474
[4]; first compound 2.5 µM
  relative viability: 0.641
[4]; first compound 7.906 µM
  relative viability: 0.758
[4]; first compound 25 µM
  relative viability: 0.589

## NCI-H647
[1]; first compound 0.04 µM
  relative viability: 0.591
[1]; first compound 0.1265 µM
  relative viability: 0.393
[1]; first compound 0.4 µM
  relative viability: 0.323
[1]; first compound 1.265 µM
  relative viability: 0.34
[1]; first compound 4 µM
  relative viability: 0.278
[2]; first compound 0.04 µM
  relative viability: 0.228
[2]; first compound 0.1265 µM
  relative viability: 0.181
[2]; first compound 0.4 µM
  relative viability: 0.147
[2]; first compound 1.265 µM
  relative viability: 0.0988
[2]; first compound 4 µM
  relative viability: 0.152
[3]; first compound 0.04 µM
  relative viability: 0.166
[3]; first compound 0.1265 µM
  relative viability: 0.174
[3]; first compound 0.4 µM
  relative viability: 0.186
[3]; first compound 1.265 µM
  relative viability: 0.223
[3]; first compound 4 µM
  relative viability: 0.201
[4]; first compound 0.25 µM
  relative viability: 0.4
[4]; first compound 0.7906 µM
  relative viability: 0.536
[4]; first compound 2.5 µM
  relative viability: 0.586
[4]; first compound 7.906 µM
  relative viability: 0.623
[4]; first compound 25 µM
  relative viability: 0.48

## NCI-H650
[1]; first compound 0.04 µM
  relative viability: 0.601
[1]; first compound 0.1265 µM
  relative viability: 0.39
[1]; first compound 0.4 µM
  relative viability: 0.254
[1]; first compound 1.265 µM
  relative viability: 0.238
[1]; first compound 4 µM
  relative viability: 0.265
[2]; first compound 0.04 µM
  relative viability: 0.889
[2]; first compound 0.1265 µM
  relative viability: 0.926
[2]; first compound 0.4 µM
  relative viability: 0.698
[2]; first compound 1.265 µM
  relative viability: 0.739
[2]; first compound 4 µM
  relative viability: 0.806
[3]; first compound 0.04 µM
  relative viability: 0.4
[3]; first compound 0.1265 µM
  relative viability: 0.413
[3]; first compound 0.4 µM
  relative viability: 0.456
[3]; first compound 1.265 µM
  relative viability: 0.441
[3]; first compound 4 µM
  relative viability: 0.494
[4]; first compound 0.25 µM
  relative viability: 0.484
[4]; first compound 0.7906 µM
  relative viability: 0.338
[4]; first compound 2.5 µM
  relative viability: 0.414
[4]; first compound 7.906 µM
  relative viability: 0.389
[4]; first compound 25 µM
  relative viability: 0.448

## NCI-H661
[1]; first compound 0.04 µM
  relative viability: 0.562
[1]; first compound 0.1265 µM
  relative viability: 0.593
[1]; first compound 0.4 µM
  relative viability: 0.445
[1]; first compound 1.265 µM
  relative viability: 0.467
[1]; first compound 4 µM
  relative viability: 0.33
[2]; first compound 0.04 µM
  relative viability: 0.968
[2]; first compound 0.1265 µM
  relative viability: 0.935
[2]; first compound 0.4 µM
  relative viability: 0.885
[2]; first compound 1.265 µM
  relative viability: 0.872
[2]; first compound 4 µM
  relative viability: 0.783
[3]; first compound 0.04 µM
  relative viability: 0.951
[3]; first compound 0.1265 µM
  relative viability: 0.872
[3]; first compound 0.4 µM
  relative viability: 0.827
[3]; first compound 1.265 µM
  relative viability: 0.772
[3]; first compound 4 µM
  relative viability: 0.909
[4]; first compound 0.25 µM
  relative viability: 0.789
[4]; first compound 0.7906 µM
  relative viability: 0.839
[4]; first compound 2.5 µM
  relative viability: 0.74
[4]; first compound 7.906 µM
  relative viability: 0.776
[4]; first compound 25 µM
  relative viability: 0.77

## NCI-H727
[1]; first compound 0.04 µM
  relative viability: 1.01
[1]; first compound 0.1265 µM
  relative viability: 0.924
[1]; first compound 0.4 µM
  relative viability: 0.441
[1]; first compound 1.265 µM
  relative viability: 0.612
[1]; first compound 4 µM
  relative viability: 0.818
[2]; first compound 0.04 µM
  relative viability: 0.423
[2]; first compound 0.1265 µM
  relative viability: 0.362
[2]; first compound 0.4 µM
  relative viability: 0.306
[2]; first compound 4 µM
  relative viability: 0.426
[3]; first compound 0.04 µM
  relative viability: 0.407
[3]; first compound 0.1265 µM
  relative viability: 0.38
[3]; first compound 0.4 µM
  relative viability: 0.364
[3]; first compound 4 µM
  relative viability: 0.314
[4]; first compound 0.25 µM
  relative viability: 0.912
[4]; first compound 0.7906 µM
  relative viability: 1.27
[4]; first compound 2.5 µM
  relative viability: 1.24
[4]; first compound 7.906 µM
  relative viability: 1.23
[4]; first compound 25 µM
  relative viability: 1.19

## NCI-H838
[1]; first compound 0.04 µM
  relative viability: 0.338
[1]; first compound 0.1265 µM
  relative viability: 0.294
[1]; first compound 0.4 µM
  relative viability: 0.228
[1]; first compound 1.265 µM
  relative viability: 0.242
[1]; first compound 4 µM
  relative viability: 0.194
[2]; first compound 0.04 µM
  relative viability: 0.271
[2]; first compound 0.1265 µM
  relative viability: 0.229
[2]; first compound 0.4 µM
  relative viability: 0.308
[2]; first compound 1.265 µM
  relative viability: 0.342
[2]; first compound 4 µM
  relative viability: 0.327
[3]; first compound 0.04 µM
  relative viability: 0.295
[3]; first compound 0.1265 µM
  relative viability: 0.237
[3]; first compound 0.4 µM
  relative viability: 0.28
[3]; first compound 1.265 µM
  relative viability: 0.26
[3]; first compound 4 µM
  relative viability: 0.289
[4]; first compound 0.25 µM
  relative viability: 0.773
[4]; first compound 0.7906 µM
  relative viability: 0.751
[4]; first compound 2.5 µM
  relative viability: 0.765
[4]; first compound 7.906 µM
  relative viability: 0.802
[4]; first compound 25 µM
  relative viability: 0.82

## NCI-H1355
[1]; first compound 0.04 µM
  relative viability: 0.477
[1]; first compound 0.1265 µM
  relative viability: 0.385
[1]; first compound 0.4 µM
  relative viability: 0.197
[1]; first compound 1.265 µM
  relative viability: 0.306
[1]; first compound 4 µM
  relative viability: 0.312
[2]; first compound 0.04 µM
  relative viability: 0.707
[2]; first compound 0.1265 µM
  relative viability: 0.641
[2]; first compound 0.4 µM
  relative viability: 0.689
[2]; first compound 1.265 µM
  relative viability: 0.61
[2]; first compound 4 µM
  relative viability: 0.753
[3]; first compound 0.04 µM
  relative viability: 0.761
[3]; first compound 0.1265 µM
  relative viability: 0.631
[3]; first compound 0.4 µM
  relative viability: 0.621
[3]; first compound 1.265 µM
  relative viability: 0.657
[3]; first compound 4 µM
  relative viability: 0.735
[4]; first compound 0.25 µM
  relative viability: 0.608
[4]; first compound 0.7906 µM
  relative viability: 0.696
[4]; first compound 2.5 µM
  relative viability: 0.683
[4]; first compound 7.906 µM
  relative viability: 0.605
[4]; first compound 25 µM
  relative viability: 0.699
